Among the data in a melting point compilation (Tetko et al.; mined from patent text by program, amines drawn as free bases though some values may be those of a salt) are melting point values, retold here.

SMILES strings stand for the structures.

`COC=C(C(=O)OC)N(C)c1nccc(-c2ccccc2)n1` returned a melting point of 123 to 125 °C.

`COc1ccc(C(=O)c2cccc(Cc3ccc(=O)[nH]n3)c2Cl)cc1` displayed a melting point of 192 to 193 °C.

Compound `COc1ccc(S(=O)(=O)Nc2ccc(C)cc2)c2c1[nH]c1ccccc12` displayed a melting point of 199 to 203 °C.

On to `Clc1ccc(-c2nnc(Br)cc2Br)cc1`, for which the melting point fell in the range of 160 to 162 °C.

Consider `N#Cc1cnc2cnc(F)cc2c1Nc1cccc(Br)c1`, for which the melting point was 185 to 195 °C.

The compound `COc1ccc(OC)c2c1C[C@@H](O)[C@@H](N)C2` (relative stereo) gave a melting point of 193 to 196 °C.

Consider `N#CC1(c2ccc(F)cc2)CCC(N2CCC3(CC2)C(=O)NCN3c2ccccc2)CC1` (stereo not given), for which the melting point turned out to be 236 °C.

`COc1nc(C)nc(NC(=O)NS(=O)(=O)c2c(C)csc2C)n1` displayed a melting point of 189 °C.

In the case of `O=C1NCCc2c1c1ccccc1n2COCc1ccccc1`, the melting point lay within 133 to 135 °C.

On to `COc1cc(OC)c2c(=O)cc(-c3n[nH]c4ccccc34)oc2c1`, for which the melting point was 253 to 255 °C.

Compound `O=C1COc2cc(F)c(NC(=O)c3ccccc3[N+](=O)[O-])cc2N1` displayed a melting point above 248 °C.

`Cc1cc(C)c2c(c1O)C(=O)C1CCCCC21` (stereo not given) displayed a melting point of 64 to 65 °C.

In turn, `Cc1cc(C)c2c(n1)N(C(=O)Cl)c1ccccc1N(C)C2=O` yielded a melting point of 205 to 207 °C.

Regarding `CSc1ccc(C(=O)O)c([N+](=O)[O-])c1`, the melting point is 165 to 168 °C.

As to `COc1cc(C(=O)N2CCCCc3cc(Cl)ccc32)ccc1NC(=O)N(C)C`, the melting point is 230 to 232 °C.

For `COc1ccc(OC)c2c1COC(C(=O)O)C2` (stereo not given), the melting point fell in the range of 164 to 166 °C.

For the compound `COCCc1nc2c(N)nc3ccccc3c2n1CCCCNC(=O)c1ccc2ccccc2n1`, the melting point was in the range of 78.1 to 79.9 °C.

`CC(C)(n1cncn1)C(O)(Cn1cncn1)c1ccc(F)cc1F` (stereo not given) gave a melting point of 155 to 157 °C.

On to `COC(=O)c1cccc2c1[nH]c1c3cc(Br)ccc3oc21`, for which the melting point is 204 to 205 °C.

Consider `N#Cc1c[nH]c2ccc([N+](=O)[O-])cc12`, for which the melting point was in the range of 186 to 190 °C.

`O=C(O)c1ccc(-n2cc[nH]c2=S)cc1` gave a melting point of 194 to 196 °C.

Take `CC(=O)Oc1ccc(-c2c3ccccc3cc3sc4ccccc4c23)cc1OC(C)=O`: the melting point lay within 179 to 180 °C.

Turning to `C#CCOc1ccc2c(C)cc(=O)oc2c1C(=O)C=Cc1ccc(F)cc1`, the melting point is 185 to 186 °C.

The compound `CC(C)(CO)NCc1ccccc1` gave a melting point of 46 to 47 °C.

As to `COc1ccc(C2=NC(C)(C)C(c3cccs3)C2)cc1` (stereo not given), the melting point is 84 °C.

Compound `Cc1c(NC(=O)c2ccc(OCc3ccccc3)cc2F)ccc2cc(CN3CCCC3)cnc12` yielded a melting point of 176 to 177 °C.

Take `CN[C@@]1(C)CCN(c2c(-c3cccc(F)c3)c(C)c(C#N)c3nc(C(=O)N(C)C)oc23)C1`: the melting point was in the range of 178 to 180 °C.

For the compound `O=C(NCCCO)OCc1ccccc1`, the melting point lay in the range of 47 to 49 °C.

For `Nc1ccc(C23CC(C2)C(=O)NC3=O)cc1`, the melting point was found to be 265 °C.

Compound `CCCc1cccc2nc3c(=O)[nH][nH]c(=O)c3c(O)c12` returned a melting point above 400 °C.

In turn, `COc1cc(OCc2ccccc2)ccc1C(O)c1cc(Cl)ccc1N` (stereo not given) yielded a melting point of 101 to 103 °C.

Compound `CCCC(CCCCNC(=O)c1cc2ccc(C3OC(CO)C(O)C(O)C3O)cc2oc1=O)C(=O)O` (stereo not given) had a melting point of 162 °C.

`CN(C)Cc1ccc2c(NCc3ccc(NC(=O)c4ccc(F)cc4)cc3)nc(N(C)C)nc2c1`: the melting point is 94 °C.

On to `CCOC(=O)CSc1cc(Cl)nc(NCc2ccc(Cl)cc2)n1`, for which the melting point lay in the range of 122 to 125 °C.

`Nc1ncccc1C(=O)NCCCOc1ccc(-c2ccc(=O)[nH]n2)cc1` had a melting point of 232 to 234 °C.

Consider `CCC1(CC)OC(c2ccc(S(C)(=O)=O)cc2)=CC1=O`, for which the melting point lay within 109 to 110 °C.

On to `O=C(NNC(=O)c1occ(-c2ccccc2)c1-c1ccccc1)c1ccc(O)c(C(F)(F)F)c1`, for which the melting point was in the range of 142 to 143 °C.

`COc1cc(NC(=O)Nc2ccccc2C)cc(OC)c1-c1ccc(C[C@H](NC(=O)c2c(Cl)cccc2Cl)C(=O)O)cc1`: the melting point was 194 to 195 °C.

Compound `CN(C)c1c(SC(F)(F)F)c(C#N)nn1-c1c(Cl)cc(C(F)(F)F)cc1Cl` returned a melting point of 110 to 111 °C.

`C[C@H](NC(=O)[C@@H](Cc1ccccc1)NS(=O)(=O)Cc1ccccc1)C(=O)NC1CCc2nc(N)sc2C1` (stereo not given in full) gave a melting point of 122 to 125 °C.

Regarding `CC(C)C[C@H](NC(=O)OCc1ccccc1)C(=O)N[C@@H](Cc1ccccc1)C(=O)CS(C)(=O)=O`, the melting point fell in the range of 142 to 144 °C.

Turning to `O=C(O)/C=C/c1cc(OCC2CC2)nn1Cc1ccc(C(F)(F)F)cc1Cl`, the melting point lay within 195 to 196 °C.

`O=C(NCC1Cc2cc(Cl)c3c(c2O1)CCC3)OCc1ccccc1` (stereo not given) gave a melting point of 118 to 121 °C.

Turning to `CC(C)c1ccnc(NC(=S)NCCC2=CCCCC2)c1`, the melting point lay within 105 to 106 °C.

As to `CCOP(=O)(Cc1ccc(-c2nc3cccc(Cl)c3o2)cc1)OCC`, the melting point fell in the range of 92 to 93 °C.

Consider `COc1ccc2c(=O)c(C#N)c(N)oc2c1`, for which the melting point was determined as 300 °C.

`Cn1c(=O)oc2cc(CCCN3CCOCC3)cnc21`: the melting point is below 80 °C.

For `C=CCn1c(=O)[nH]c(=O)n(-c2cc(N3C(=O)C4=C(CCCC4)C3=O)c(F)cc2Cl)c1=O`, the melting point fell in the range of 130 to 145 °C.

`CCOc1ncc(C(=O)O)c2ccccc12`: the melting point was 222 °C.

Regarding `Nc1cc(=O)n(Cc2ccc3c(c2)OCO3)[nH]1`, the melting point was found to be 218 °C.

In turn, `COc1cc(OC)c(C(=O)N2CCc3cc(O)ccc3C2)cc1OC` displayed a melting point of 180 to 188 °C.

For `CCCCOC(=O)c1cc(=O)c2c3c(cc(Cl)c2o1)-c1ccc(S(=O)(=O)O)cc1CO3`, the melting point lay within 95 to 97 °C.

Compound `N#Cc1cc(F)c(NC(=O)CC(=O)C(F)(F)F)cc1F` returned a melting point of 176 to 181 °C.

Regarding `O=C(O)Cc1c(C(=O)c2ccc(Cl)cn2)[nH]c2ccc(Cl)cc12`, the melting point lay in the range of 259 to 260 °C.

Turning to `Clc1c(OCCN2CCCCC2)ccc2cc3ccc(OCCN4CCCCC4)c(Cl)c3nc12`, the melting point is 173 to 174 °C.

Compound `O=C(CN1CCOCC1)NC(c1ccccc1)C1(c2ccc(Cl)cc2)CCC1` (stereo not given) had a melting point of 95 to 97 °C.

In turn, `O=S1(=O)NCN(C2CCCCCCC2)c2cc(Cl)c(Cl)cc21` had a melting point of 154 to 155 °C.

Compound `CCOC(=O)C(=O)Nc1ccccc1C(=O)Nc1nnn[nH]1` came in with a melting point of 231 to 232 °C.

Compound `Cc1cc(Cl)c(C(N)=O)c(Cl)c1` gave a melting point of 101 to 107 °C.

The compound `COC(=O)[C@]1(F)[C@@H]2[C@H]1C(=O)C[C@H]2O[Si](C)(C)C(C)(C)C` registered a melting point of 70 to 71 °C.

On to `CC12CC=C3c4ccc(O)cc4CCC3C1CCC2=O` (stereo not given), for which the melting point lay in the range of 250 to 255 °C.

On to `CC(O)/C=C/c1ccc(-c2ccccc2)cc1` (stereo not given), for which the melting point was in the range of 138 to 139 °C.

The compound `CN(CCN1C(=O)c2ccccc2C1=O)C(c1ccccc1)c1ccccc1` showed a melting point of 130 to 131 °C.

Consider `c1ccc2cc(Cn3c(-c4ccc5c(c4)OCO5)nc4ccccc43)ccc2c1`, for which the melting point amounted to 180 °C.

For the compound `COCCCN1CC[C@@H](CNC(=O)c2cc(Cl)cc3c2OCCO3)[C@H](O)C1`, the melting point stood at 110 °C.

In turn, `CCOC(=O)c1cnoc1-c1ccc(Cl)c(Br)c1` had a melting point of 109 to 110 °C.

`COc1ccc(CC(C)NCC(O)c2ccccc2OC)cc1OC` (stereo not given) yielded a melting point of 125 to 126 °C.

`COC(=O)C1=CC(C)(N)NC(C2CC2)=N1` (stereo not given) gave a melting point of 152 to 153 °C.

Compound `CC(=O)n1[nH]c(=O)n(-c2ccc(Cl)cc2)c1=O` registered a melting point of 201 to 203 °C.

The compound `COc1ccc2cc(C(=O)C(C)OS(C)(=O)=O)ccc2c1` (stereo not given) had a melting point of 149 to 151 °C.

Regarding `O=C1CC(=O)OC(CCc2ccccc2)(C2CCCC2)C1` (stereo not given), the melting point lay in the range of 96 to 99 °C.

The compound `CC(c1ccccc1)N1CC(CCl)C(c2ccccc2)(c2ccccc2)C1=O` (stereo not given) yielded a melting point of 115 to 120 °C.

`C=CCNc1nc(Cl)c2ccn(C)c2n1` had a melting point of 113 to 114 °C.

As to `CCOC(=O)CCC(C)Oc1ccc2c(c1)C(N(CC)S(C)(=O)=O)CC(C)(C)O2` (stereo not given), the melting point was in the range of 65 to 67 °C.

As to `COc1cnc(OC)n2c(N)nnc12`, the melting point fell in the range of 232 to 235 °C.

`Cc1ccc(S(=O)(=O)C(CC=Cc2ccc(Cl)cc2)C(=O)O)cc1` (stereo not given) registered a melting point of 162 to 164 °C.

As for `CC(C)OCc1nc(N)c2nccnc2n1`, the melting point lay within 139 to 141 °C.

Compound `Cc1ccc(Sc2cccc(-c3nc(=O)c4ccccc4s3)n2)cc1` gave a melting point of 177 to 178 °C.

The compound `O=C(NCCO)c1cccc(-c2ccc3c(n2)N(Cc2ccc(Cl)cc2Cl)CC3)c1` showed a melting point of 142 to 143 °C.

`CCCCCCC=CCC1CC(=O)N(c2cc(Cc3n[nH]c(=O)c4ccccc34)ccc2F)C1=O` (stereo not given) yielded a melting point of 146 to 149 °C.

In turn, `Cc1nc2c3c(ccn2c1C)C(=O)CC(c1ccsc1)N3` (stereo not given) had a melting point of 176 to 177 °C.

`COc1cc(F)c(-c2ccc3nc(C(=O)NC(Cc4ccc(OCc5ccccc5)cc4)C(=O)O)cn3c2)c(F)c1` (stereo not given) came in with a melting point of 219 °C.

Regarding `CN=C(NC#N)C1=CC(CF)(CF)Oc2ccc(C(F)(F)C(F)(F)F)cc21`, the melting point lay within 178 to 179 °C.

Compound `O=C(Oc1ccccc1)N1CCC(c2nn(C(=O)c3ccccc3)c3cc(F)ccc23)CC1` had a melting point of 137 to 139 °C.

In the case of `COCO[C@@H](CCCCC1CCCCC1)CCc1ccc(C(C)(C)C)c(NC(=O)CC2c3ccccc3Oc3ccccc32)c1`, the melting point was 71 to 73 °C.

Take `CN(C(=O)c1ccccn1)c1cccc(F)c1`: the melting point lay in the range of 75 to 78 °C.

Turning to `Cc1ccc(C2c3c(C)c(N4CCN(c5ccccc5[N+](=O)[O-])CC4)c(C)c(C)c3OC2(C)C)cc1` (stereo not given), the melting point was 178 to 180 °C.

As to `O=C(Nc1ccc2[nH]c(=O)c(=O)[nH]c2c1)C(F)(F)F`, the melting point was above 330 °C.

For the compound `CCOC(=O)Cc1csc(NC(=O)C(CC2CCCC2)c2ccc(NC(=O)c3cccnc3)cc2)n1` (stereo not given), the melting point is 195 to 200 °C.

In the case of `COC1NC(=O)CC2CC1c1ccccc12` (stereo not given), the melting point was 205 to 207 °C.

Usually melting point stands for the temperature, or range, at which the solid turns liquid.
